Experimental findings from patent US11957759B1, “Rapidly accelerated fibrosarcoma (RAF) degrading compounds and associated methods of use” (Arvinas Operations, Inc., priority 2022, dated 2024) are described below.

Assay [1] concerns the target T1, B-RAF V600E (Homo sapiens, UniProt P15056, V600E).
T1 construct: expressed in transfected cells; host or cells: T-Rex 293 cells (Invitrogen #R71007)
Kind of assay: Target protein degradation, assay C: T-Rex 293 cells, HA-BRAF_V600E, 384 well format. The note with it: T-Rex 293 HA-BRAF_V600E cells, 24 hours, Examples 83-269; for DC50: Assay C; for Dmax: T-REx-293, Assay C. The assay is classed as cell-based. The procedure, abridged: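 T-Rex 293 cells stably expressing doxycycline-induced (1 ng/mL) HA-BRAF V600E were treated 24 h at 37 °C with compound (300 nM–5 pM, 11 points, 0.5% DMSO). HA immunofluorescence was quantified by high-content imaging to give DC50 and Dmax (% of control); nuclei counts versus DMSO gauged toxicity.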

The target in assay [2] is T2, B-RAF G466V (Homo sapiens, UniProt P15056, G466V).
T2 construct: expressed in transfected cells; host or cells: T-Rex 293 cells (Invitrogen #R71007)
T2 sequence (P15056 whole entry G466V): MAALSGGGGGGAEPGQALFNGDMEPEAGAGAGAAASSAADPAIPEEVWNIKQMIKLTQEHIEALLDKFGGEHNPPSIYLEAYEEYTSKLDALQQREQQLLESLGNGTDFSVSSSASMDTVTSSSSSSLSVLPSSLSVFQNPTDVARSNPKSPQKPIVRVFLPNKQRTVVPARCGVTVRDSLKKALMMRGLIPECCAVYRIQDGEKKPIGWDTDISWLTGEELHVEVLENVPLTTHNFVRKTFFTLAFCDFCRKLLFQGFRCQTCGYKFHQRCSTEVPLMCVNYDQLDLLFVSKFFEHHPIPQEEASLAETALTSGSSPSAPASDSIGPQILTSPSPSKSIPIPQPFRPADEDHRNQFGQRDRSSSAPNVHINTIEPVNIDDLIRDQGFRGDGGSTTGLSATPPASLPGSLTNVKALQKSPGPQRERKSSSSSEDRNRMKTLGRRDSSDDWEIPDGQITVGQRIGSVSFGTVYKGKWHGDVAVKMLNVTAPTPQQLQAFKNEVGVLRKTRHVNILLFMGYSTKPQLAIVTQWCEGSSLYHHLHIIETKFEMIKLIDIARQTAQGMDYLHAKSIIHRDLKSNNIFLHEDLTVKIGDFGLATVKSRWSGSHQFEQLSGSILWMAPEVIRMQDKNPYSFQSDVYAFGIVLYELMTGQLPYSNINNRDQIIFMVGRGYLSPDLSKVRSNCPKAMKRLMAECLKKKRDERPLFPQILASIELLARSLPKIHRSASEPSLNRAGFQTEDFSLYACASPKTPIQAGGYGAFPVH
Kind of assay: Target protein degradation, assay D: T-Rex 293 cells, HA-BRAF_G466V, 384 well format. The settings on record: T-Rex 293 HA-BRAF_G466V cells, 24 hours, Examples 83-269; for DC50: Assay D; for Dmax: T-REx-293, Assay D. Format: cell-based. The procedure, abridged:
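T-Rex 293 cells stably expressing doxycycline-induced (1 ng/mL) HA-BRAF G466V treated 24 h at 37 °C with PROTACs, 11-point 1:3 dilution, 300 nM to 5 pM final, 0.5% DMSO. Fixed cells immunostained for HA and imaged by high-content microscopy; DC50 and Dmax (% of control) derived, toxicity from nuclei counts versus DMSO.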

T1 sequence (P15056 whole entry V600E): as the sequence (P15056 whole entry G466V) above, with V466G, V600E counted along it

For orientation: DC50 means the concentration giving 50% degradation. A lower DC50 goes with a more potent degrader. One may read the Dmax as the largest share of the target that was removed. Regarding `N#Cc1c(NS(=O)(=O)N2CC[C@@H](F)C2)ccc(F)c1Oc1ccc2ncn(-c3ccc(N4CCC(CN5CCC(c6ccc7c(c6)CN([C@H]6CCC(=O)NC6=O)C7=O)CC5)C4)cc3)c(=O)c2c1` (stereo partly drawn) [Example 221, (3R)-N-(2-cyano-3-{[3-(4-{3-[(4-{2-[(3S)-2,6-dioxopiperidin-3-yl]-1-oxo-2,3-dihydro-1H-isoindol-5-yl}piperidin-1-yl)methyl]pyrrolidin-1-yl}phenyl)-4-oxo-3,4-dihydroquinazolin-6-yl]oxy}-4-fluorophenyl)-3-fluoropyrrolidine-1-sulfonamide], the DC50 in assay [1] lay within 0.05 to 0.5 µM; in assay [2], 0.001 to 0.01 µM. In addition, the Dmax in assay [1] and in assay [2] was 35 to 70% each time.

In the case of `CN(c1ccc2c(c1)CN([C@H]1CCC(=O)NC1=O)C2=O)C1CCC2(CC1)CCN(CC1CCN(c3ccc(-n4cnc5ccc(Oc6c(F)ccc(NS(=O)(=O)N7CC[C@@H](F)C7)c6C#N)cc5c4=O)cc3)CC1)CC2` [Example 222, (3R)-N-[2-cyano-3-({3-[4-(4-{[9-({2-[(3S)-2,6-dioxopiperidin-3-yl]-1-oxo-2,3-dihydro-1H-isoindol-5-yl}(methyl)amino)-3-azaspiro[5.5]undecan-3-yl]methyl}piperidin-1-yl)phenyl]-4-oxo-3,4-dihydroquinazolin-6-yl}oxy)-4-fluorophenyl]-3-fluoropyrrolidine-1-sulfonamide], the results for the DC50 in assay [1] and in assay [2] were 0.05 to 0.5 µM and 0.001 to 0.01 µM, respectively. The Dmax in assay [1] and in assay [2] was 35 to 70% each time.

In assay [1], `N#Cc1c(NS(=O)(=O)N2CC[C@@H](F)C2)ccc(F)c1Oc1ccc2ncn(-c3ccc(N4CCN(CC5(F)CCN(c6ccc7c(c6)CN([C@H]6CCC(=O)NC6=O)C7=O)CC5)CC4)cc3)c(=O)c2c1` [Example 223, (3R)-N-(2-cyano-3-{[3-(4-{4-[(1-{2-[(3S)-2,6-dioxopiperidin-3-yl]-1-oxo-2,3-dihydro-1H-isoindol-5-yl}-4-fluoropiperidin-4-yl)methyl]piperazin-1-yl}phenyl)-4-oxo-3,4-dihydroquinazolin-6-yl]oxy}-4-fluorophenyl)-3-fluoropyrrolidine-1-sulfonamide] yielded a DC50 of 0.05 to 0.5 µM and a Dmax of 35 to 70%. In assay [2], this compound showed a DC50 of 0.001 to 0.01 µM and a Dmax of 35 to 70%.

In assay [1], `CN(c1ccc(-n2cnc3ccc(Oc4c(F)ccc(NS(=O)(=O)N5CC[C@@H](F)C5)c4C#N)cc3c2=O)cc1)[C@H]1CC[C@@H](N2CCN(c3ccc4c(c3)CN([C@H]3CCC(=O)NC3=O)C4=O)CC2)CC1` [Example 224, (3R)-N-(2-cyano-4-fluoro-3-{[3-(4-{methyl[(1r,4r)-4-(4-{2-[(3S)-2,6-dioxopiperidin-3-yl]-1-oxo-2,3-dihydro-1H-isoindol-5-yl}piperazin-1-yl)cyclohexyl]amino}phenyl)-4-oxo-3,4-dihydroquinazolin-6-yl]oxy}phenyl)-3-fluoropyrrolidine-1-sulfonamide] registered a DC50 of 0.05 to 0.5 µM and a Dmax not above 35%. In assay [2], this compound came in with a DC50 of 0.01 to 0.03 µM and a Dmax of 35 to 70%.

With `CN(c1ccc(-n2cnc3ccc(Oc4c(F)ccc(NS(=O)(=O)N5CC[C@@H](F)C5)c4C#N)cc3c2=O)cc1)C1CCC(N2CCN(c3ccc4c(c3)CN([C@H]3CCC(=O)NC3=O)C4=O)CC2)CC1` (stereo partly drawn) [Example 225, (3R)-N-(2-cyano-4-fluoro-3-{[3-(4-{methyl[(1s,4s)-4-(4-{2-[(3S)-2,6-dioxopiperidin-3-yl]-1-oxo-2,3-dihydro-1H-isoindol-5-yl}piperazin-1-yl)cyclohexyl]amino}phenyl)-4-oxo-3,4-dihydroquinazolin-6-yl]oxy}phenyl)-3-fluoropyrrolidine-1-sulfonamide], the results for the DC50 in assay [1] and in assay [2] were more than 0.5 µM and 0.01 to 0.03 µM, respectively. For the same compound, the greatest degradation seen (Dmax) in assay [2] lay within 35 to 70%.

On to `N#Cc1c(NS(=O)(=O)N2CC[C@@H](F)C2)ccc(F)c1Oc1ccc2ncn(-c3ccc(C4CCC5(CC4)CCN(CC4CCN(c6ccc7c(c6)CN([C@H]6CCC(=O)NC6=O)C7=O)CC4)CC5)cc3)c(=O)c2c1` [Example 226, (3R)-N-(2-cyano-3-{[3-(4-{3-[(1-{2-[(3S)-2,6-dioxopiperidin-3-yl]-1-oxo-2,3-dihydro-1H-isoindol-5-yl}piperidin-4-yl)methyl]-3-azaspiro[5.5]undecan-9-yl}phenyl)-4-oxo-3,4-dihydroquinazolin-6-yl]oxy}-4-fluorophenyl)-3-fluoropyrrolidine-1-sulfonamide], for which, in assay [1], the DC50 was in the range of 0.05 to 0.5 µM and the Dmax is not above 35%. In assay [2], this compound yielded a DC50 of 0.001 to 0.01 µM and a Dmax of 35 to 70%.

In assay [1], `CCc1c(NS(=O)(=O)N2CC[C@@H](F)C2)ccc(F)c1Oc1ccc2ncn(-c3ccc(N4CCN(CC5CCN(c6ccc7c(c6)CN(C6CCC(=O)NC6=O)C7=O)CC5)CC4)cc3)c(=O)c2c1` (stereo partly drawn) [Example 227, (3R)-N-{3-[(3-{4-[4-({1-[2-(2,6-dioxopiperidin-3-yl)-1-oxo-2,3-dihydro-1H-isoindol-5-yl]piperidin-4-yl}methyl)piperazin-1-yl]phenyl}-4-oxo-3,4-dihydroquinazolin-6-yl)oxy]-2-ethyl-4-fluorophenyl}-3-fluoropyrrolidine-1-sulfonamide] yielded a DC50 of 0.05 to 0.5 µM and a Dmax not above 35%. In assay [2], this compound came in with a 50% degradation concentration (DC50) of 0.01 to 0.03 µM and a Dmax not above 35%.

Regarding `N#Cc1c(NS(=O)(=O)N2CC[C@@H](F)C2)ccc(F)c1Oc1ccc2ncn(-c3ccc(N4CCC(CN5CCC6(CC5)CCN(c5ccc7c(c5)CN([C@H]5CCC(=O)NC5=O)C7=O)CC6)CC4)cc3)c(=O)c2c1` [Example 228, (3R)-N-(2-cyano-3-{[3-(4-{4-[(9-{2-[(3S)-2,6-dioxopiperidin-3-yl]-1-oxo-2,3-dihydro-1H-isoindol-5-yl}-3,9-diazaspiro[5.5]undecan-3-yl)methyl]piperidin-1-yl}phenyl)-4-oxo-3,4-dihydroquinazolin-6-yl]oxy}-4-fluorophenyl)-3-fluoropyrrolidine-1-sulfonamide], the results for the DC50 in assay [1] and in assay [2] were 0.05 to 0.5 µM and 0.001 to 0.01 µM, respectively. The maximal degradation (Dmax) in assay [1] and in assay [2] was 35 to 70% throughout.

Turning to `CN(c1ccc2c(c1)CN([C@@H]1CCC(=O)NC1=O)C2=O)[C@H]1CC[C@H](N2CCN(c3ccc(-n4cnc5ccc(Oc6c(F)ccc(NS(=O)(=O)N7CC[C@@H](F)C7)c6C#N)cc5c4=O)cc3)CC2)CC1` [Example 229, (3R)-N-(2-cyano-4-fluoro-3-{[4-oxo-3-(4-{4-[(1r,4r)-4-({2-[(3R)-2,6-dioxopiperidin-3-yl]-1-oxo-2,3-dihydro-1H-isoindol-5-yl}(methyl)amino)cyclohexyl]piperazin-1-yl}phenyl)-3,4-dihydroquinazolin-6-yl]oxy}phenyl)-3-fluoropyrrolidine-1-sulfonamide], in assay [1], the DC50 lay within 0.05 to 0.5 µM and the Dmax lay within 35 to 70%. In assay [2], this compound displayed a DC50 of 0.001 to 0.01 µM and a Dmax of 35 to 70%.

In assay [1], `CN(c1ccc2c(c1)CN([C@H]1CCC(=O)NC1=O)C2=O)[C@H]1CC[C@@H](N2CCN(c3ccc(-n4cnc5ccc(Oc6c(F)ccc(NS(=O)(=O)N7CC[C@@H](F)C7)c6C#N)cc5c4=O)cc3)CC2)CC1` [Example 230, (3R)-N-(2-cyano-4-fluoro-3-{[4-oxo-3-(4-(4-[(1r,4r)-4-({2-[(3S)-2,6-dioxopiperidin-3-yl]-1-oxo-2,3-dihydro-1H-isoindol-5-yl}(methyl)amino)cyclohexyl]piperazin-1-yl}phenyl)-3,4-dihydroquinazolin-6-yl]oxy}phenyl)-3-fluoropyrrolidine-1-sulfonamide] displayed a DC50 of 0.05 to 0.5 µM and a Dmax of 35 to 70%. In addition, in assay [2], the half-maximal degradation concentration (DC50) was in the range of 0.001 to 0.01 µM and the greatest degradation seen (Dmax) was 35 to 70%.
